Like-named read-outs stand apart in the source and are kept apart here.
Tests used:
NF-κB = NF-κB inflammation assay (PRINCESS NINA Instant Assay, A549-NF-κB-SEAP reporter cells); type: cell-based; conditions: for EC50: A549-NF-κB-SEAP reporter cells stimulated with 2 ng/ml TNF-α, read-out: Biological activity (EC50, NF-κB inflammation assay)
A549 cells = assay: Determination of cell viability (MTT staining); type: cell-based
Procedure: Cell lines (e.g. A549) incubated with compounds of the invention were assessed on cell viability by means of MTT staining.

human PBMCs = assay: Cytokine production of human PBMCs; type: cell-based; conditions: for EC50: Homo sapiens, PBMC, 48 h, 48 hours
[1] = system: Influenza A virus H5N1-strain; type: cell-based; conditions: 5 μM, infected A549 cells
influenza virus = assay: Antiviral combination with interferon-α
influenza strain H7N7 = type: in vivo, mouse
mouse T-cell = assay: Mouse T-cell proliferation; type: cell-based
hematological cell lines = assay: In-vitro antitumor activity in human tumor cell lines (monolayer assay, propidium iodide); type: cell-based
[2] = system: Fowl Plaque Virus, H7N7-strain; type: cell-based, Influenza A virus; conditions: 5 μM, infected A549 cells
influenza strain H5N1 = type: in vivo, mouse
[3] = system: bird flu virus H5N1 (strain MB1); type: in vivo, mouse; conditions: H5N1 infected mice, daily 15 mg/kg i.p. for two days
mouse splenocytes = assay: Cytokine production of mouse splenocytes stimulated with CD3/CD28; type: cell-based; conditions: 10 μM
human lymphocyte = assay: T-lymphocyte proliferation assay (stimulated PBMC, BrdU); type: cell-based

Question: How did the EC50 (NF-κB) turn out when `COc1cc(N2CCC(c3nc(C(=O)Nc4nc5ccc(C(=O)c6ccccc6)cc5[nH]4)cs3)CC2)nc(OC)n1` [Compound 1, N-(6-benzoyl-1H-benzo[d]imidazol-2-yl)-2-(1-(2,6-dimethoxypyrimidin-4-yl)piperidin-4-yl)thiazole-4-carboxamide] was run?
Answer: < 10 µM

Question: Which EC50 (NF-κB) does the source give for `O=C(c1ccccc1)c1ccc2nc(NC(=O)c3csc(C4CCN(c5ncnc6nc[nH]c56)CC4)n3)[nH]c2c1` [Compound 2, 2-(1-(7H-purin-6-yl)piperidin-4-yl)-N-(6-benzoyl-1H-benzo[d]imidazol-2-yl)thiazole-4-carboxamide] here?
Answer: < 10 µM

Question: Which EC50 (NF-κB) does the source give for `N#Cc1ccnc(N2CCC(c3nc(C(=O)Nc4nc5ccc(C(=O)c6ccccc6)cc5[nH]4)cs3)CC2)c1` [Compound 3, N-(6-benzoyl-1H-benzo[d]imidazol-2-yl)-2-(1-(4-cyanopyridin-2-yl)piperidin-4-yl)thiazole-4-carboxamide] here?
Answer: 30 to 100 µM

Question: `O=C(c1ccccc1)c1ccc2nc(NC(=O)c3csc(C4CCN(c5ncnc6ccsc56)CC4)n3)[nH]c2c1` [Compound 4, N-(6-benzoyl-1H-benzo[d]imidazol-2-yl)-2-(1-(thieno[3,2-d]pyrimidin-4-yl)piperidin-4-yl)thiazole-4-carboxamide] was tested. Which cytotoxicity (A549 cells) did it give?
Answer: not cytotoxic

Question: What about the “cell viability versus DMSO treated and untreated cells” value (A549 cells; 5 μM, absence of virus, MTT staining, 96 hours) of the same compound?
Answer: the same

Question: What about the EC50 (human PBMCs; LPS stimulation, read-out: IL-6 secretion EC50) of the same compound?
Answer: 0.6 µM

Question: And the EC50 (human PBMCs; LPS stimulation, read-out: TNF-alpha secretion EC50)?
Answer: 12.6 µM

Question: What about the EC50 (human PBMCs; PHA stimulation, read-out: IL-6 secretion EC50) of the same compound?
Answer: 0.2 µM

Question: What about the EC50 (human PBMCs; PHA stimulation, read-out: INF-gamma secretion EC50) of the same compound?
Answer: 9 µM

Question: What about the EC50 (human PBMCs; PHA stimulation, read-out: TNF-alpha secretion EC50) of the same compound?
Answer: 7.9 µM

Question: And the “secretion of cytokines like IL-1beta, IL-6, IL-8, IFN-gamma, and TNF-alpha” value (human PBMCs; stimulated with CL075)?
Answer: blocked

Question: What about the “secretion of cytokines like IL-6 and IL-8” value (human PBMCs; stimulated with IL-1beta) of the same compound?
Answer: blocked

Question: What about the “secretion of cytokines like IL-8, IL-1beta, INF-gamma, TNF-alpha, IL-10, and IL-6” value (human PBMCs; stimulated with LPS) of the same compound?
Answer: blocked

Question: And the “secretion of cytokines like IL-6 and IL-8” value (human PBMCs; stimulated with ODN1668)?
Answer: blocked

Question: What about the “secretion of cytokines like IL-8 and IFN-gamma” value (human PBMCs; stimulated with ODN2216) of the same compound?
Answer: blocked

Question: And the “secretion of cytokines like IL-1beta, IL-6, IL-2, IL-8, IL-10, IL-12p70, INF-gamma, and TNF-alpha” value (human PBMCs; stimulated with PHA)?
Answer: blocked

Question: What about the “secretion of cytokines like IL-1beta, IL-6, and IL-8” value (human PBMCs; stimulated with TNF-alpha) of the same compound?
Answer: blocked

Question: What about the “reduction of virus titer” value [1] of the same compound?
Answer: 4 log units

Question: And the “synergism in anti-viral efficacy and toxicity antagonism of combination with INFα versus IFNα combination with ribavirin” value (influenza virus; combination with INFα)?
Answer: stronger synergism

Question: And the “antiviral effects in combination with INF-α” value (influenza virus; combination with interferon-α)?
Answer: synergistic antiviral effects

Question: And the “protection of infected mice (survival)” value (influenza strain H7N7; LD50 H7N7, 15 mg/kg daily i.p. day 0 to day 8, end day 14, p<0.05)?
Answer: complete protection

Question: And the “protection of infected mice (survival)” value (influenza strain H7N7; LD50 H7N7, daily i.v. day 0 to day 4, doses equal or higher 5 mg/kg, end day 14, p<0.05)?
Answer: significant protection

Question: And the “mouse T-cell proliferation” value (mouse T-cell)?
Answer: inhibits

Question: And the “multiple myeloma derived cell lines above average sensitive” value (hematological cell lines; cell lines derived from multiple myelomas)?
Answer: 4 out of 5

Question: What about the “score of tumor sensitivity” value (hematological cell lines; panel of hematological cell lines) of the same compound?
Answer: excellent score of tumor sensitivity

Question: And the “reduction of virus titer” value [2]?
Answer: 5 log units

Question: What about the “protection of infected mice (survival)” value (influenza strain H5N1; LD50 H5N1, treatment from day 4 to day 10, 7.5 mg/kg b.id. and 15 mg/kg daily i.p., end day 14, p=0.05) of the same compound?
Answer: significant protection

Question: What about the “protection of infected mice (survival)” value (influenza strain H5N1; LD50 H5N1, two times 7.5 mg/kg daily i.p. day 0 to day 10, end day 14, p<0.05) of the same compound?
Answer: significant protection

Question: What about the “expression of H5N1 specific mRNA in the lung” value [3] of the same compound?
Answer: reduced expression

Question: What about the “transcription of IL-6 and IP-10 genes in the lung” value [3] of the same compound?
Answer: reduced transcription

Question: And the “cytokine production, all measured cytokines” value (mouse splenocytes; after 24 hours)?
Answer: completely inhibited

Question: What about the “reduction of secretion of most cytokines” value (mouse splenocytes; after 48 hours) of the same compound?
Answer: more than 90 % of the DMSO control

Question: What about the EC50 (NF-κB) of the same compound?
Answer: < 10 µM

Question: And the IC50 (NF-κB; read-out: NF-κB reporter gene assay IC50)?
Answer: ~0.1 µM

Question: What about the human lymphocyte proliferation (human lymphocyte) of the same compound?
Answer: inhibits

Question: With `O=C(c1ccccc1)c1ccc2nc(NC(=O)c3csc(C4CCN(c5cc(C(F)(F)F)ncn5)CC4)n3)[nH]c2c1` [Compound 5, N-(6-benzoyl-1H-benzo[d]imidazol-2-yl)-2-(1-(6-(trifluoromethyl)pyrimidin-4-yl)piperidin-4-yl)thiazole-4-carboxamide] as the compound, how does the EC50 (NF-κB) read?
Answer: 10 to 30 µM

Question: Which EC50 (NF-κB) does the source give for `COc1cc2c(N3CCC(c4nc(C(=O)Nc5nc6cc(C(=O)c7ccccc7)ccc6[nH]5)cs4)CC3)ncnc2cc1OCCCN1CCN(C)CC1` [Compound 6, N-(5-benzoyl-1H-benzo[d]imidazol-2-yl)-2-(1-(6-methoxy-7-(3-(4-methylpiperazin-1-yl)propoxy)quinazolin-4-yl)piperidin-4-yl)thiazole-4-carboxamide] here?
Answer: < 10 µM

Question: Which EC50 (NF-κB) does the source give for `O=CN1CCC(c2nc(C(=O)Nc3nc4cc(C(=O)c5ccccc5)ccc4[nH]3)cs2)CC1` [Compound 7, N-(5-benzoyl-1H-benzo[d]imidazol-2-yl)-2-(1-formylpiperidin-4-yl)thiazole-4-carboxamide] here?
Answer: < 10 µM

Question: How did the EC50 (NF-κB) turn out when `COC(=O)c1cn2ncnc(N3CCC(c4nc(C(=O)Nc5nc6cc(C(=O)c7ccccc7)ccc6[nH]5)cs4)CC3)c2c1C` [Compound 8, Methyl 4-(4-(4-(5-benzoyl-1H-benzo[d]imidazol-2-ylcarbamoyl)thiazol-2-yl)piperidin-1-yl)-5-methylpyrrolo[1,2-f][1,2,4]triazine-6-carboxylate] was run?
Answer: 30 to 100 µM

Question: With `Cc1cc2nccc(N3CCC(c4nc(C(=O)Nc5nc6cc(C(=O)c7ccccc7)ccc6[nH]5)cs4)CC3)n2n1` [Compound 9, N-(5-benzoyl-1H-benzo[d]imidazol-2-yl)-2-(1-(2-methylpyrazolo[1,5-a]pyrimidin-7-yl)piperidin-4-yl)thiazole-4-carboxamide] as the compound, how does the EC50 (NF-κB) read?
Answer: < 10 µM

Question: `O=C(c1ccccc1)c1ccc2[nH]c(NC(=O)c3csc(C4CCN(c5ccnc6ncnn56)CC4)n3)nc2c1` [Compound 10, 2-(1-([1,2,4]triazolo[1,5-a]pyrimidin-7-yl)piperidin-4-yl)-N-(5-benzoyl-1H-benzo[d]imidazol-2-yl)thiazole-4-carboxamide] was tested. Which EC50 (NF-κB) did it give?
Answer: < 10 µM

Question: Which EC50 (NF-κB) does the source give for `COC(=O)c1nc2nccc(N3CCC(c4nc(C(=O)Nc5nc6cc(C(=O)c7ccccc7)ccc6[nH]5)cs4)CC3)n2n1` [Compound 11, Methyl 7-(4-(4-(5-benzoyl-1H-benzo[d]imidazol-2-ylcarbamoyl)thiazol-2-yl)piperidin-1-yl)-[1,2,4]triazolo[1,5-a]pyrimidine-2-carboxylate] here?
Answer: < 10 µM

Question: How did the EC50 (NF-κB) turn out when `O=C(c1ccccc1)c1ccc2nc(NC(=O)c3csc(C4CCN(C(=O)Nc5cc(Cl)nc(Cl)c5)CC4)n3)[nH]c2c1` [Compound 12, N-(6-benzoyl-1H-benzo[d]imidazol-2-yl)-2-(1-(2,6-dichloropyridin-4-ylcarbamoyl)piperidin-4-yl)thiazole-4-carboxamide] was run?
Answer: < 10 µM

Question: For `COc1nc(OC)nc(N2CCC(c3nc(C(=O)Nc4nc5cc(C(=O)c6ccccc6)ccc5[nH]4)cs3)CC2)n1` [Compound 13, N-(5-benzoyl-1H-benzo[d]imidazol-2-yl)-2-(1-(4,6-dimethoxy-1,3,5-triazin-2-yl)piperidin-4-yl)thiazole-4-carboxamide], which EC50 (NF-κB) is on record?
Answer: < 10 µM

Question: Which EC50 (NF-κB) does the source give for `COc1cc2ncnc(N3CCC(c4nc(C(=O)Nc5nc6cc(C(=O)c7ccccc7)ccc6[nH]5)cs4)CC3)c2cc1OC` [Compound 14, N-(5-benzoyl-1H-benzo[d]imidazol-2-yl)-2-(1-(6,7-dimethoxyquinazolin-4-yl)piperidin-4-yl)thiazole-4-carboxamide] here?
Answer: < 10 µM

Question: How did the EC50 (NF-κB) turn out when `O=C(c1ccccc1)c1ccc2[nH]c(NC(=O)c3csc(C4CCN(c5ccncc5[N+](=O)[O-])CC4)n3)nc2c1` [Compound 15, N-(5-benzoyl-1H-benzo[d]imidazol-2-yl)-2-(1-(3-nitropyridin-4-yl)piperidin-4-yl)thiazole-4-carboxamide] was run?
Answer: < 10 µM

Question: For `O=C(c1ccccc1)c1ccc2[nH]c(NC(=O)c3csc(C4CCN(C(=O)c5ccccc5OC(F)(F)F)CC4)n3)nc2c1` [Compound 16, N-(5-benzoyl-1H-benzo[d]imidazol-2-yl)-2-(1-(2-(trifluoromethoxy)benzoyl)piperidin-4-yl)thiazole-4-carboxamide], which EC50 (NF-κB) is on record?
Answer: < 10 µM

Question: For `Cc1cc2nnc(C(=O)N3CCC(c4nc(C(=O)Nc5nc6cc(C(=O)c7ccccc7)ccc6[nH]5)cs4)CC3)c(C)n2n1` [Compound 17, N-(5-benzoyl-1H-benzo[d]imidazol-2-yl)-2-(1-(4,7-dimethylpyrazolo[5,1-c][1,2,4]triazine-3-carbonyl)piperidin-4-yl)thiazole-4-carboxamide], which EC50 (NF-κB) is on record?
Answer: < 10 µM
